What was measured:
[1] = target: T1, human TRPV1 receptor (hTRPV1) (Homo sapiens (Human), UniProt Q8NER1); assay: Acid activation assay (pH 5.0, FLIPR intracellular Ca2+); format: cell-based; conditions: Table 1; 37.5 μM antagonist, percentage of the maximal pH 5.0-induced response remaining; read-out: hTRPV1 H+ (max % remain)
Experimental: Dulbecco's modified Eagle's medium (DMEM) with 4.5 mg/mL D-glucose, fetal bovine serum, L-glutamine, and 2-morpholinoethanesulfonic acid (MES) were purchased from Sigma-Aldrich Co. (St. Louis, Mo.). Dulbecco's phosphate-buffered saline (DPBS) with Ca^2+, Mg^2+, and 1 mg/mL D-glucose (pH 7.4), Geneticin®, 0.25% trypsin-1 mM EDTA, and penicillin-streptomycin were purchased from Invitrogen Corp. (Carlsbad, Calif.). The FLIPR® Calcium 4 assay kit was purchased from Molecular Devices (Sunnyvale, Calif.).
The cDNAs for the human TRPV1 receptor (hTRPV1) were isolated by reverse transcriptase-polymerase chain reaction (RT-PCR) from human small intestine poly A+RNA supplied by Clontech (Palo Alto, Calif.) using primers designed surrounding the initiation and termination codons identical to the published sequences (Hayes et al. Pain 2000, 88, 205-215). The resulting cDNA PCR products were subcloned into pCIneo mammalian expression vector (Promega) and fully sequenced using fluorescent dye-terminator reagents (Prism, Perkin-Elmer Applied Biosystems Division) and a Perkin-Elmer Applied Biosystems Model 373 DNA sequencer or Model 310 genetic analyzer. Expression plasmids encoding the hTRPV1 cDNA were transfected individually into 1321N1 human astrocytoma cells using Lipofectamine. Forty-eight hours after transfection, the neomycin-resistant cells were selected with growth medium containing 800 μg/mL Geneticin (Gibco BRL). Surviving individual colonies were isolated and screened for TRPV1 receptor activity. Cells expressing recombinant homomeric TRPV1 receptors were maintained at 37° C. in DMEM containing 4 mM L-glutamine, 300 μg/mL G418 (Cal-biochem) and 10% fetal bovine serum under a humidified 5% CO2 atmosphere.
The functional activity of compounds at the TRPV1 receptor was determined by measurement of intracellular Ca^2+ levels ([Ca^2+]i) using the Fluorescence Imaging Plate Reader (FLIPR)^TETRA®. All compounds were tested over a 12-point one-half-log concentration range. Compound stocks, 10 mM, were prepared in DMSO, and diluted serially across a 384-well plate using a Bravo BenchCel workstation (Agilent Technologies, Santa Clara, Calif.).
On the day of the experiment growth medium was removed, and the no-wash FLIPR® Calcium-4 dye (λEX=470-495 nm, λEM=515-575 nm) was added to each well using the Multidrop® dispenser. Cells were incubated for 90-120 minutes in the dark at 25° C. Test compounds were dissolved in DMSO, and plates were prepared using an Agilent Bravo workstation (Agilent Technologies Inc., Santa Clara, Calif.). Compounds were added to the cells 3 minutes prior to the addition of a pH 5.0 solution. Reagents were delivered at a rate of 40 μL/sec, and the final assay volume was 80 μL. Acidic pH solutions were prepared by titration of DPBS/MES with 1 N HCl. The intensity of the fluorescence was captured and digitally transferred to an interfaced PC.

[2] = target: T1, human TRPV1 receptor (hTRPV1); assay: Capsaicin activation assay (FLIPR intracellular Ca2+); format: cell-based; conditions: Table 1; inhibition of capsaicin-induced intracellular Ca2+ increase, HEK293 cells expressing human TRPV1; read-out: hTRPV1 cap IC50
Experimental: Dulbecco's modified Eagle medium (D-MEM) (with 4.5 mg/mL glucose) and fetal bovine serum were obtained from Hyclone Laboratories, Inc. (Logan, Utah). Dulbecco's phosphate-buffered saline (D-PBS) (with 1 mg/mL glucose and 3.6 mg/l Na pyruvate, without phenol red), L-glutamine, hygromycin B, and Lipofectamine® were obtained from Life Technologies (Grand Island, N.Y.). G418 sulfate was obtained from Calbiochem-Novabiochem Corp. (San Diego, Calif.). Capsaicin (8-methyl-N-vanillyl-6-nonenamide) was obtained from Sigma-Aldrich, Co. (St. Louis, Mo.). Fluo-4 AM (N-[4-[6-[(acetyloxy)methoxy]-2,7-difluoro-3-oxo-3H-xanthen-9-yl]-2-[2-[2-[bis[2-[(acetyloxy)methoxy]-2-oxyethyl]amino]-5-methyl phenoxy]ethoxy]phenyl]-N-[2-[(acetyloxy)methoxy]-2-oxyethyl]-glycine, (acetyloxy)methyl ester) was purchased from Molecular Probes (Eugene, Oreg.). […]
The functional activity of compounds at the TRPV1 receptor was determined by measurement of intracellular Ca^2+ levels ([Ca^2+]i) using the Fluorescence Imaging Plate Reader (FLIPR)^TETRA®. All compounds were tested over a 12-point one-third-log concentration range. Compound stocks, 10 mM, were prepared in DMSO, and diluted serially across a 384-well plate using a Bravo BenchCel workstation (Agilent Technologies, Santa Clara, Calif.). A stock concentration of capsaicin (10 mM) was made in DMSO, and diluted in D-PBS to a final concentration of 200 nM (4×). On the day prior to the experiment, recombinant HEK293 cells that stably express human TRPV1 were removed from tissue culture flasks and plated in growth medium into black-walled clear-bottom 384-well Biocoat™ poly-D-lysine assay plates (BD Biosciences, Bedford, Mass.) using a Multidrop® dispenser (ThermoScientific, Waltham, Mass.). On the day of the experiment, growth medium was removed, and the no-wash FLIPR® Calcium-4 dye (λEX=470-495 nm, λEM=515-575 nm; Molecular Devices, Sunnyvale, Calif.) was added to each well using the Multidrop® dispenser. Cells were incubated for 90-120 minutes in the dark at room temperature. Test compounds were added to the cells 3 minutes prior to the addition of 200 nM capsaicin (4×), and the final assay volume was 80 μL. Fluorescence readings were made at 1 to 5 second intervals over the course of the experimental run. The peak increase in relative fluorescence units (minus baseline) was calculated, and expressed as a percentage of the 50 nM capsaicin (control) response.

T1 sequence (Q8NER1 whole entry): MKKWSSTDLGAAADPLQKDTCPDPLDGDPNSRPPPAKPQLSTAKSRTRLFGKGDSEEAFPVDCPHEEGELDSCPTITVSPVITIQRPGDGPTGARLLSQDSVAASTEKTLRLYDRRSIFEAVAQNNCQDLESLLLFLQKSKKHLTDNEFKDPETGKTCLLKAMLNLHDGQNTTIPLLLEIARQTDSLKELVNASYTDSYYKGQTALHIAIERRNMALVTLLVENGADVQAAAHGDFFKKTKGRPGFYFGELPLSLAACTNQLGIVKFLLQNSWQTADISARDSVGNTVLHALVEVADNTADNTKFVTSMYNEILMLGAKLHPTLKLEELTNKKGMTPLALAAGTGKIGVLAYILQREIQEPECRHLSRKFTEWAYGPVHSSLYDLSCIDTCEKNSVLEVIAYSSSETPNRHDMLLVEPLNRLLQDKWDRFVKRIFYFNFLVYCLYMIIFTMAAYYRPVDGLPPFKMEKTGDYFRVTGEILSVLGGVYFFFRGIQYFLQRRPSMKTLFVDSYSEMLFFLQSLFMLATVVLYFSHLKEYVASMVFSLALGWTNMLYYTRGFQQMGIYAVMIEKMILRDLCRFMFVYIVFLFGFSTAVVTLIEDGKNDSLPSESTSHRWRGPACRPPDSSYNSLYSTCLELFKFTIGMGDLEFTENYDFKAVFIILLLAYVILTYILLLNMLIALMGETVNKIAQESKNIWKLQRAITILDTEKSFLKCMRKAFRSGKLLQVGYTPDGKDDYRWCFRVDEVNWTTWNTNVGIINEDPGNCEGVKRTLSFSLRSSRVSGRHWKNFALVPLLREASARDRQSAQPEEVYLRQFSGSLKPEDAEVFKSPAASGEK

SMILES: O=C(Nc1cccc2[nH]ncc12)N[C@H]1CC[C@H](c2ccccn2)C1 (relative stereo) [Example 39, 1-(1H-indazol-4-yl)-3-[trans-3-(pyridin-2-yl)cyclopentyl]urea]
- remaining activity at 37.5 µM [1]: 33%

SMILES: C[C@H]1Oc2c(NC(=O)N[C@H]3CC[C@H](c4ccccc4)C3)cccc2NC1=O [Example 10, 1-[(2R)-2-methyl-3-oxo-3,4-dihydro-2H-1,4-benzoxazin-8-yl]-3-[(1S,3S)-3-phenylcyclopentyl]urea]
- remaining activity at 37.5 µM [1]: 3%
- IC50 [2]: 0.084 µM

SMILES: O=C(Nc1cccc2[nH]ncc12)N[C@H]1CC[C@@H](c2ccccn2)C1 (relative stereo) [Example 38, 1-(1H-indazol-4-yl)-3-[cis-3-(pyridin-2-yl)cyclopentyl]urea]
- remaining activity at 37.5 µM [1]: 53%

SMILES: O=C(Nc1cccc2[nH]ncc12)N[C@H]1CCC[C@@H](c2ccc(C(F)(F)F)cc2)C1 [Example 33, 1-(1H-indazol-4-yl)-3-{(1S,3R)-3-[4-(trifluoromethyl)phenyl]cyclohexyl}urea]
- remaining activity at 37.5 µM [1]: 68%
- IC50 [2]: 8.64 µM

SMILES: Cc1cnc([C@@H]2CC[C@H](NC(=O)Nc3cccc4[nH]ncc34)C2)o1 (stereo in doubt) [Example 126, 1-(1H-indazol-4-yl)-3-[(1S*,3R*)-3-(5-methyl-1,3-oxazol-2-yl)cyclopentyl]urea]
- remaining activity at 37.5 µM [1]: 23%

SMILES: C[C@H]1Oc2c(NC(=O)N[C@@H]3CC[C@H](c4ccccc4)C3)cccc2NC1=O [Example 3, 1-[(2R)-2-methyl-3-oxo-3,4-dihydro-2H-1,4-benzoxazin-8-yl]-3-[(1R,3S)-3-phenylcyclopentyl]urea]
- remaining activity at 37.5 µM [1]: 2%
- IC50 [2]: 0.055 µM

SMILES: Cc1cc2c(NC(=O)N[C@@H]3CC[C@H](c4ncc(C)o4)C3)c(F)ccc2cn1 (stereo in doubt) [Example 127, 1-(6-fluoro-3-methylisoquinolin-5-yl)-3-[(1R*,3S*)-3-(5-methyl-1,3-oxazol-2-yl)cyclopentyl]urea]
- remaining activity at 37.5 µM [1]: 54%

SMILES: Cn1c(=O)ccc2c(NC(=O)N[C@H]3CC[C@@H](c4ccccc4F)C3)cccc21 [Example 80, 1-[(1S,3R)-3-(2-fluorophenyl)cyclopentyl]-3-(1-methyl-2-oxo-1,2-dihydroquinolin-5-yl)urea]
- remaining activity at 37.5 µM [1]: 55%
- IC50 [2]: 0.01 µM

SMILES: O=C(Nc1cccc2c1C[C@@H](O)C2)N[C@@H]1CC[C@@H](c2ccccc2)C1 [Example 16, 1-[(2S)-2-hydroxy-2,3-dihydro-1H-inden-4-yl]-3-[(1R,3R)-3-phenylcyclopentyl]urea]
- remaining activity at 37.5 µM [1]: 87%
- IC50 [2]: 0.08 µM

SMILES: O=C(Nc1cccc2[nH]ncc12)N[C@@H]1CC[C@@H](c2nc(C(F)(F)F)cs2)C1 (relative stereo) [Example 129, 1-(1H-indazol-4-yl)-3-{(1R*,3R*)-3-[4-(trifluoromethyl)-1,3-thiazol-2-yl]cyclopentyl}urea]
- remaining activity at 37.5 µM [1]: 6%

SMILES: O=C(Nc1cccc2c1C[C@H](O)C2)N[C@H]1CC[C@@H](c2ccccc2)C1 [Example 22, 1-[(2R)-2-hydroxy-2,3-dihydro-1H-inden-4-yl]-3-[(1S,3R)-3-phenylcyclopentyl]urea]
- remaining activity at 37.5 µM [1]: 41%
- IC50 [2]: 0.286 µM

SMILES: Cn1c(=O)ccc2c(NC(=O)N[C@@H]3CC[C@@H](c4ccccc4F)C3)cccc21 [Example 81, 1-[(1R,3R)-3-(2-fluorophenyl)cyclopentyl]-3-(1-methyl-2-oxo-1,2-dihydroquinolin-5-yl)urea]
- remaining activity at 37.5 µM [1]: 66%
- IC50 [2]: 0.0023 µM

SMILES: CN1C(=O)CCc2ccc(NC(=O)N[C@@H]3CC[C@@H](c4ccccc4F)C3)cc21 [Example 109, 1-[(1R,3R)-3-(2-fluorophenyl)cyclopentyl]-3-(1-methyl-2-oxo-1,2,3,4-tetrahydroquinolin-7-yl)urea]
- remaining activity at 37.5 µM [1]: 76%
- IC50 [2]: > 37.5 µM

SMILES: C[C@@]1(c2ccccc2)CC[C@@H](NC(=O)Nc2cccc3[nH]ncc23)C1 [Example 73, 1-(1H-indazol-4-yl)-3-[(1R,3R)-3-methyl-3-phenylcyclopentyl]urea]
- remaining activity at 37.5 µM [1]: 11%
- IC50 [2]: 0.164 µM

SMILES: CN1C(=O)CCc2ccc(NC(=O)N[C@H]3CC[C@@H](c4ccccc4F)C3)cc21 [Example 110, 1-[(1S,3R)-3-(2-fluorophenyl)cyclopentyl]-3-(1-methyl-2-oxo-1,2,3,4-tetrahydroquinolin-7-yl)urea]
- remaining activity at 37.5 µM [1]: 72%
- IC50 [2]: > 37.5 µM

SMILES: O=C(Nc1cccc2[nH]ncc12)N[C@@H]1CC[C@H](c2nc(C(F)(F)F)cs2)C1 (relative stereo) [Example 130, 1-(1H-indazol-4-yl)-3-{(1R*,3S*)-3-[4-(trifluoromethyl)-1,3-thiazol-2-yl]cyclopentyl}urea]
- remaining activity at 37.5 µM [1]: 5%

SMILES: Cc1csc([C@@H]2CC[C@H](NC(=O)Nc3cccc4[nH]ncc34)C2)n1 (single isomer, unassigned) [Example 120, 1-(1H-indazol-4-yl)-3-[(1S*,3R*)-3-(4-methyl-1,3-thiazol-2-yl)cyclopentyl]urea]
- remaining activity at 37.5 µM [1]: 54%

SMILES: Cc1cnc([C@H]2CC[C@@H](NC(=O)Nc3cccc4[nH]ncc34)C2)o1 (stereo in doubt) [Example 128, 1-(1H-indazol-4-yl)-3-[(1R*,3S*)-3-(5-methyl-1,3-oxazol-2-yl)cyclopentyl]urea]
- remaining activity at 37.5 µM [1]: 54%

SMILES: Cc1csc([C@H]2CC[C@@H](NC(=O)Nc3cccc4[nH]ncc34)C2)n1 (single isomer, unassigned) [Example 121, 1-(1H-indazol-4-yl)-3-[(1R*,3S*)-3-(4-methyl-1,3-thiazol-2-yl)cyclopentyl]urea]
- remaining activity at 37.5 µM [1]: 10%

SMILES: O=C(Nc1cccc2[nH]ncc12)N[C@@H]1CCC(c2nc(C(F)(F)F)cs2)C1 (stereo partly drawn) [Example 131, 1-(1H-indazol-4-yl)-3-{(1R)-3-[4-(trifluoromethyl)-1,3-thiazol-2-yl]cyclopentyl}urea]
- remaining activity at 37.5 µM [1]: 1%

SMILES: Cc1cc2c(NC(=O)N[C@H]3CC[C@@H](c4ncc(C)o4)C3)c(F)ccc2cn1 (stereo in doubt) [Example 125, 1-(6-fluoro-3-methylisoquinolin-5-yl)-3-[(1S*,3R*)-3-(5-methyl-1,3-oxazol-2-yl)cyclopentyl]urea]
- remaining activity at 37.5 µM [1]: 41%

SMILES: Cc1csc([C@H]2CC[C@H](NC(=O)Nc3cccc4[nH]ncc34)C2)n1 (relative stereo) [Example 119, 1-(1H-indazol-4-yl)-3-[(trans)-3-(4-methyl-1,3-thiazol-2-yl)cyclopentyl]urea]
- remaining activity at 37.5 µM [1]: 18%

Source: patent publication US8802711B2, “TRPV1 antagonists” (AbbVie Inc., priority 2011, dated 2014)
